Data reported in patent publication US6914072B2, “Cannabinoid drugs” (Indevus Pharmaceuticals, Inc., priority 2000, dated 2005).

How the values were obtained:
[1] = Stereospecificity of the proliferation effect (D-isomer vs L-isomer); format: cell-based; settings: 25 μM dose, p<0.001, FIG. 2
From the text: (§1) Cell proliferation assays. […] 5:69-84, 1995.
To assess whether ajulemic acid's effect was receptor-mediated, a preparation 95% enriched in the D-isomer of ajulemic acid was used to examine the stereospecificity of the effect observed above.

U87 = assay: 48 hour MTT assay, U87 (brain); format: cell-based, human; settings: 25 μM
Description: as §1
(§2) The proliferation of a number of human cell lines derived from a variety of cancer types (brain, breast, bladder, lung, and prostate) was tested for sensitivity to 25 μM of each agent for 48 hours.

U373 = assay: 48 hour MTT assay, U373 (brain); format: cell-based, human; settings: 25 μM
Description: as §1, §2

U118 = assay: 48 hour MTT assay, U118 (brain); format: cell-based, human; settings: 25 μM
Description: as §1, §2

A172 = assay: 48 hour MTT assay, A172 (brain); format: cell-based, human; settings: 25 μM
Description: as §1, §2

HS578T = assay: 48 hour MTT assay, HS578T (breast); format: cell-based, human; settings: 25 μM
Description: as §1, §2

HT1376 = assay: 48 hour MTT assay, HT1376 (bladder); format: cell-based, human; settings: 25 μM
Description: as §1, §2

J82 = assay: 48 hour MTT assay, J82 (bladder); format: cell-based, human; settings: 25 μM
Description: as §1, §2

Calu6 = assay: 48 hour MTT assay, Calu6 (lung); format: cell-based, human; settings: 25 μM
Description: as §1, §2

Du145 = assay: 48 hour MTT assay, Du145 (prostate); format: cell-based, human; settings: 25 μM
Description: as §1, §2

PC3 = assay: 48 hour MTT assay, PC3 (prostate); format: cell-based, human; settings: 25 μM
Description: as §1, §2

[2] = tested on: human cell lines derived from a variety of cancer types (brain, breast, bladder, lung, and prostate); assay: 48 hour MTT assay, panel of ten human cancer cell lines (mean); format: cell-based; settings: 25 μM; for Inhibition level (mean±SD) over the human cancer cell lines: 48 hours, mean±SD of ten lines
Description: as §1, §2

C6 cells [3] = assay: Cell morphology (phase and electron microscopy), C6 cells; format: cell-based
Description: (§3) In order to investigate this effect further, the effect of ajulemic acid on cell cycle kinetics was assessed. C6 glioma cells were incubated for 24 hours in media containing 0.5% serum to synchronize them in G1/G0. The cells were then exposed to media containing 10% serum either with or without 25 μM ajulemic acid for two days.
Third, another distinctive feature of ajulemic acid's antitumor effect was the appearance of retractile bodies that could be easily visualized with phase microscopy. Both the number of cells that had refractile bodies as well as the number of refractile bodies/cell increased over time. After 48 hours, 83% of ajulemic acid-treated C6 cells had one or more refractile bodies compared to 27% to THC-treated cells (p<0.001, Chi-square analysis). The mean number of refractile bodies per cell was also much higher for ajulemic acid-treated cells compared to THC-treated cells (1.78±1.6 vs. 0.22±0.5 per cell, p<0.001, t-test).
To further explore the nature of the cell enlargement and refractile bodies, cells were examined under electron microscopy. […] In fact, these cells appeared metabolically active. […] Moreover, ajulemic acid-treated cells were enlarged and contained large lipid droplets, the identity of which was confirmed by […].

C6 glioma cells [4] = assay: MTT cell proliferation assay, C6 glioma cells; format: cell-based
Description: as §1, §2

C6 glioma cells [5] = assay: Co-incubation of C6 glioma cells with a CB1 antagonist; format: cell-based; settings: 3.2 μM of a specific CB1 antagonist
From the text: as §1
First, the compound's inhibition of cell proliferation was not reversible with a CB1 antagonist.

C6 glioma cells [6] = assay: Flow cytometry/cell cycle analysis; format: cell-based; settings: 25 μM, two days in 10% serum after synchronization; control 4.4 ± 0.3
Description: Flow cytometry/cell cycle analysis. For flow cytometry, cells were grown in low serum (0.5%) for two days to synchronize cells in G0/G1, after which they were placed in high serum (10%) for two days. The cells were then labeled with propidium iodide and fixed in 4% paraformaldehyde. Cells were examined using a MoFlo Facs sorter for DNA content.
as §3

WI38 cells = assay: Refractile bodies by phase microscopy, WI38 cells; format: cell-based, rat; settings: same length of time and dosage (48 hours)
C6 cells [7] = assay: Viability by trypan blue exclusion; format: cell-based; settings: ajulemic acid-treated cells
C6 cells [8] = assay: Lipid incorporation assay (14C-arachidonic acid); format: cell-based; settings: 25 μM, 48 hours
PKC activity in C6 cells = assay: Protein kinase C (PKC) assay; format: cell-based; settings: 25 μM
Description: Protein kiniase C (PKC) assay. Cells were transferred into MEM media (0.5% serum) and cultured overnight. The next day, cells were treated with either DMSO or 25 μM ajulemic acid for the specified incubation time, after which the plates were trypsinized. 5×10^6 trypsinized cells were assayed for PKC activity using a kit (Calbiochem, cat. no. 53984).
Because diacyl glycerol (DAG) is an important signal transducer of protein kinase C, the effect of ajulemic acid treatment on the PKC activity in C6 cells was examined. […] At least two alternative explanations for this observation exist: (1) the PKC isozymes that were stimulated were those with slow growth, such as PKCδ; and (2) the increased DAG was modulating some other downstream mediator, such as β-chimaerin, to a greater extent such that the balance is towards anti-proliferation.

[9] = tested on: human glioma cell line U87; assay: In vivo subcutaneous U87 nude mouse tumor model; design: species or system male nu/nu BALBc mice; settings: 0.1 mg/kg thrice weekly, FIG. 4
Description: In vivo subcutaneous model. 10^6 U87 cells were injected into the right […] of male nu/nu BALBc mice (Charles River). Two days after inoculation, the mice received either 0.1 mg/kg ajulemic acid in 0.05 ml of safflower oil, or 0.05 ml safflower oil by oral administration. Thereafter, identical dosings were performed on each Monday, Wednesday, and Friday. When visible tumors appeared, the size of the tumors were estimated by averaging the values of two roughly perpendicular diameters measurements. Visible tumors were measured on the days of drug administration.
Whether ajulemic acid has in vivo antitumor activity was determined using a nude mouse tumor model. The growth of the human glioma cell line U87 injected subcutaneously in nude mice was assessed with and without ajulemic acid administration. For these experiments, ajulemic acid treatment was initiated two days after inoculation of 10^6 tumor cells in the mice. […] At day 25 post-inoculation, 5 of 5 control mice had tumors with a mean diameter of 16.3±3.2 mm, while the mean diameter in the treated group was 3.8±8.5 mm (n=5, p-0.015, t-test).

[10] = tested on: normal fibroblast cell line WI38; assay: MTT cell proliferation assay, WI38 cells; settings: 25 μM, two days, three different experiments

| Compound | Percent inhibition of human cancer cell line growth in 48 hour MTT assay (U87) [%] | Percent inhibition of human cancer cell line growth in 48 hour MTT assay (U373) [%] | Percent inhibition of human cancer cell line growth in 48 hour MTT assay (U118) [%] | Percent inhibition of human cancer cell line growth in 48 hour MTT assay (A172) [%] | Percent inhibition of human cancer cell line growth in 48 hour MTT assay (HS578T) [%] | Percent inhibition of human cancer cell line growth in 48 hour MTT assay (HT1376) [%] | Percent inhibition of human cancer cell line growth in 48 hour MTT assay (J82) [%] | Percent inhibition of human cancer cell line growth in 48 hour MTT assay (Calu6) [%] | Percent inhibition of human cancer cell line growth in 48 hour MTT assay (Du145) [%] | Percent inhibition of human cancer cell line growth in 48 hour MTT assay (PC3) [%] | Inhibition level (mean±SD) over the human cancer cell lines [2] [%] | further results |
| --- | --- | --- | --- | --- | --- | --- | --- | --- | --- | --- | --- | --- |
| CCCCCCC(C)(C)c1cc(O)c2c(c1)OC(C)(C)[C@@H]1CC=C(C(=O)O)C[C@@H]21 (single isomer, unassigned) [D-isomer of ajulemic acid] | – | – | – | – | – | – | – | – | – | – | – | Potency of D-isomer compared to L-isomer of ajulemic acid [1]: marked decrease in the potency |
| CCCCCc1cc(O)c2c(c1)OC(C)(C)[C@@H]1CC=C(C(=O)O)C[C@@H]21 [THC-11-oic acid, reference compound] | 5 ± 1 | 0 | 14 ± 3 | 61 ± 2 | 2 ± 1 | 21 ± 12 | 3 ± 1 | 19 ± 5 | 7 ± 3 | 1 ± 1 | 13.1±18.5 | Refractile bodies (in words), C6 glioma cells (C6 cells [3]; 25 μM, 48 hours): no retractile bodies were noted |
| CCCCCCC(C)(C)c1cc(O)c2c(c1)OC(C)(C)[C@@H]1CC=C(C(=O)O)C[C@@H]21 [ajulemic acid, 1′,1′-dimethylheptyl-Δ^8-THC11-oic acid] | 54 ± 2 | 34 ± 1 | 60 ± 2 | 76 ± 1 | 60 ± 2 | 60 ± 2 | 57 ± 3 | 69 ± 3 | 74 ± 2 | 69 ± 2 | 61.3 ±12.1 | Inhibition of C6 cell proliferation (C6 glioma cells [4]; 25 μM, two days, three different experiments): 65%; IC50 (C6 glioma cells [4]; C6 glioma cells, FIG. 1, read-out: IC50, inhibition of C6 glioma cells (MTT assay)): 55 µM; Effectiveness compared to THC in the ten lines ([2]; p<0.05, in six of the ten lines tested): significantly more effective; Change of effect on co-incubation with CB1 antagonist (in words) (C6 glioma cells [5]): slight potentiation; S (mean % ± SD) (C6 glioma cells [6]): 13.0%; Appearance of treated cells under electron microscopy (C6 cells [3]): neither apoptotic nor necrotic; Refractile bodies (in words), WI38 cells (WI38 cells): no retractile bodies were noted; Viability rate by trypan blue exclusion (C6 cells [7]): > 95%; Content of tri- and di-glyceride relative to controls (C6 cells [8]): over three-fold greater than in controls; Neutral lipids (14C-arachidonic acid incorporation) versus basal levels (C6 cells [8]; p<0.05 Dunnett's test, FIG. 3): significant increase above basal levels; Onset of PKC activity increase (PKC activity in C6 cells): increased within five minutes; PKC activity relative to control (PKC activity in C6 cells; for one hour): approximately two-fold above that of control; Tumor appearance and size (in words) [9]: A delay in both the appearance and size of tumors; Inhibition of WI38 cell proliferation [10]: 44% |
| CCCCCc1cc(O)c2c(c1)OC(C)(C)[C@@H]1CCC(C)=C[C@@H]21 [Δ^9-THC, tetrahydrocannabinol, reference compound] | – | – | – | – | – | – | – | – | – | – | – | Decrease in potency on co-incubation with CB1 antagonist (C6 glioma cells [5]): 150% |
